Laboratory results published in PMC12751012, “Nanoscale Direct-to-Biology Optimization and Structural Insights into Selective S. aureus TrmD Inhibitors” (Journal of Medicinal Chemistry, 2025).
Like-named read-outs stand apart in the source and are kept apart here.

Assays:
[1] = biological target: T1, S. aureus TrmD (Staphylococcus aureus, UniProt Q2FZ43); test: Aptamer-based MTase enzyme inhibition assay; assay type: biochemical
T1 construct: made in house; host or cells: E. coli BL21
T1 sequence (Q2FZ43 1-245): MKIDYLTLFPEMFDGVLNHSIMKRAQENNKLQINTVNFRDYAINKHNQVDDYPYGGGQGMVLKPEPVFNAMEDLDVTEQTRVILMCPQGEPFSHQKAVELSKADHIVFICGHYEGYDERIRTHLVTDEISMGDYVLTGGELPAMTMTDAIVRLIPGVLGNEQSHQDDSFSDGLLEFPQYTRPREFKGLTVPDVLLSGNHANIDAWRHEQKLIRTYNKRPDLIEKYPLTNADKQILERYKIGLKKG
Procedure: For the determination of S. aureus TrmD IC50-values, a split aptamer assay according to Nidoieva et al. was employed. The assay was performed in 40 mM Tris HCl, 100 mM NaCl, 10 mM MgCl2, 5% Glycerol, pH 7.5. Enzyme reaction mixtures contained synthetic tRNA^LeuCAG substrate (synthetic tRNA^Leu: 5′-[…]-3′, Genscript, final concentration: 2 μM), S. aureus TrmD (final concentration: 100 nM), SAM (New England Biolabs, final concentration: 2 μM), and the test compounds in varying concentrations (3% DMSO, final volume 10 μL). Pure DMSO was used as a mock treatment reaction control. The assay was carried out in triplicate in black 384-well plates (Greiner). Enzyme reactions were quenched by the addition of 1 μL SDS (3%) after an incubation time of 60 min at room temperature.

[2] = biological target: T1, S. aureus TrmD; test: nanoSAR direct-to-biology FP displacement screening of crude triazoles; assay type: binding; details: read-out: % displaced tracer
Summary of the method: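 Crude CuAAC triazoles from alkyne 7 and 320 diverse azides were screened by FP displacement of 10 nM tracer 4 from 500 nM S. aureus TrmD. Buffer was 40 mM Tris HCl, 100 mM NaCl, 10 mM MgCl2, 5% glycerol, pH 7.5.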

[3] = biological target: T2, H. influenzae TrmD (Haemophilus influenzae, UniProt P43912); test: Fluorescence polarization (FP) assay, tracer 3 (Cy5TPD), H. influenzae TrmD; assay type: binding
T2 construct: host or cells: E. coli BL21
Procedure: Fluorescence polarization (FP) assays were performed as follows. The assays for H. influenzae TrmD have been described previously. All assays were conducted in technical triplicate using black 96-well half area plates. For the FP assays, a tracer (20 nM Cy5TPD for E. coli and H. influenzae TrmD, 10 nM tracer 4 for S. aureus TrmD) was mixed with the respective enzyme (2 μM E. coli TrmD, 2 μM H. influenzae TrmD, 500 nM S. aureus TrmD) in buffer (E. coli and H. influenzae TrmD: 50 mM HEPES, 500 mM NaCl, 5% Glycerol, pH 7.5, S. aureus TrmD: 40 mM Tris HCl, 100 mM NaCl, 10 mM MgCl2, 5% Glycerol, pH 7.5). The compounds were added in varying concentrations for K D-value determination. […] The Z-factor for tracer 4 was determined by measuring 48 replicates of the free tracer (positive controls, PC) and 48 replicates of a mixture of enzyme and tracer (negative controls, NC). The Z-factor is defined in terms of the means (μ) and standard deviations (σ) of the positive and negative controls and calculated as Z = 1–(3*(σnc + σpc)/(μnc–μpc)). […] Polarization values (mP) were determined from polarization-specific parallel and orthogonal fluorescence intensities. K D-values were calculated in GraphPad Prism 8.0.1 using the four-parameter Hill equation: y(% tracer bound) = bottom + ([ligand]-slope) × (top–bottom)/([ligand]-slope + K Dslope).

[4] = system: S. aureus RN4220; test: Minimal bactericidal concentration (MBC) determination, CFU/mL; assay type: cell-based, Staphylococcus aureus; details: 24 h static incubation
Procedure: To determine the minimal bactericidal concentration of the substances, bacterial cultures were prepared as in the bacterial growth inhibition assay but incubated statically at 37 °C. A serial dilution of the initial culture was made and plated on a TSB agar plate to determine the CFU/mL of the original culture. After 24 h, the cultures were diluted again and plated. Bacterial colonies were counted, and the CFU/mL was calculated. The experiment was performed in n = 3 biological replicates. Data evaluation was done using GraphPad Prism. One-way ANOVA with Dunnett’s multiple comparisons test was used for statistical analysis, and all samples were compared to the starting CFU/mL.

[5] = aptamer-based enzyme assay, read-out: IC50 S. aureus TrmD
[6] = crude triazole at 1 μM, assuming full conversion, 500 nM TrmD, 10 nM tracer 4
[7] = read-out: KD H. influenzae TrmD (FP)

T2 sequence (P43912 whole entry): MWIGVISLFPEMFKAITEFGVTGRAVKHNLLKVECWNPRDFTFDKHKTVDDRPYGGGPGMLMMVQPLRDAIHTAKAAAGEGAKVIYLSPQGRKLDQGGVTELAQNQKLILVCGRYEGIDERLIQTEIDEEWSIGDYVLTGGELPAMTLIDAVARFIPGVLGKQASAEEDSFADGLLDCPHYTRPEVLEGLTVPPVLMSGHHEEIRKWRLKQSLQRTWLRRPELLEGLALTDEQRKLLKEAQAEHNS

Structure (SMILES) | IC50 [1, 5] [nM] | inhibition at 1 µM [2, 6] [%] | Kd [3, 7] [nM] | other results
N#Cc1cccc(Cn2cc(-c3c[nH]c4nc[nH]c(=O)c34)nn2)c1 [Compound 8b, 3-((4-(4-Oxo-4,7-dihydro-3H-pyrrolo[2,3-d]pyrimidin-5-yl)-1H-1,2,3-triazol-1-yl)methyl)benzonitrile] | 3220 ± 1800 | 100 | > 30000 | 
O=c1[nH]cnc2[nH]cc(-c3cn(CC4CCC5C(CC4)C5(F)F)nn3)c12 (stereo not drawn) [Compound 8c, 5-(1-((8,8-Difluorobicyclo[5.1.0]octan-4-yl)methyl)-1H-1,2,3-triazol-4-yl)-3,7-dihydro-4H-pyrrolo[2,3-d]pyrimidin-4-one] | 710 ± 100 | 98 | > 30000 | 
O=c1[nH]cnc2[nH]cc(-c3cn(Cc4ccc5ncccc5c4)nn3)c12 [Compound 8d, 5-(1-(Quinolin-6-ylmethyl)-1H-1,2,3-triazol-4-yl)-3,7-dihydro-4H-pyrrolo[2,3-d]pyrimidin-4-one] | 390 ± 70 | 98 | > 30000 | 
N[C@@H]1CCC[C@@H]1Cn1cc(-c2c[nH]c3nc[nH]c(=O)c23)nn1 [Compound 8e, 5-(1-(((1R,2R)-2-Aminocyclopentyl)methyl)-1H-1,2,3-triazol-4-yl)-3,7-dihydro-4H-pyrrolo[2,3-d]pyrimidin-4-one] | 480 ± 60 | 93 | > 30000 | 
O=C(/N=C(\NCCn1cc(-c2c[nH]c3nc[nH]c(=O)c23)nn1)NC(=O)OCc1ccccc1)OCc1ccccc1 [Compound 8f] |  |  |  | concentration from which growth (CFU/mL) is affected [4]: 12.5 µM; effect on CFU/mL after 24 h (MBC determination) [4]: bacteria were not killed completely
CC(C)(C)OC(=O)/N=C(\NCCn1cc(-c2c[nH]c3nc[nH]c(=O)c23)nn1)NC(=O)OC(C)(C)C [Compound 8g] |  |  |  | effect on CFU/mL after 24 h (MBC determination) [4]: cell growth is not negatively affected
NC(N)=NCCn1cc(-c2c[nH]c3nc[nH]c(=O)c23)nn1 [Compound 8h] |  |  |  | IC50 [1]: 1160 ± 120 nM; inhibition at 1 µM [2]: 97%; Kd ([3]; KD H. influenzae TrmD (FP)): > 30000 nM
